Assays:
[1] = Single ascending-dose study, safety (adverse events); assay type: in vivo, human
Protocol: The study comprised a total of 7 dose groups (2.5, 5, 10, 20, 40, 60, and 80 mg groups, respectively). The first dose group (2.5 mg) consisted of 8 subjects, with 6 receiving HEC113995PA·H2O and 2 receiving placebo. Dose groups 2–7 each included 10 subjects, with 8 subjects receiving HEC113995PA·H2O and 2 subjects receiving placebo. Male and female participants were randomly assigned to the groups. Serial blood samples were collected before and after drug administration to determine the plasma concentration of pharmacokinetics (PK) and to evaluate the pharmacokinetic characteristics. The time points of blood collection and safety evaluation of PK in the second to seventh dose groups were adjusted based on the results of the first dose group. Drug safety and tolerability were evaluated on day 2 and 4 in the first dose group and on day 4 and 7 in the second to seventh dose groups. The trial was conducted in a dose-escalation manner, with progression to the next dose arm only after the safety of the previous arm had been evaluated. In the fourth group (20 mg group), in addition to blood samples, urine and stool samples were also collected for in vivo drug metabolic transformation studies.
Safety indicators were assessed through adverse events (AE), clinical laboratory tests (including blood routine, blood biochemistry, urine routine), vital signs monitoring (ear temperature), pulse, respiration and blood pressure in a sitting position), 12-lead electrocardiogram (ECG) and physical examinations. Adverse events (AE) and serious adverse events (SAE) were evaluated following the criteria outlined in National Cancer Institute Common Terminology Criteria for Adverse Events (NCI-CTCAE) version 5.0.
Any adverse events that occurred in all subjects during the clinical trial were recorded with the following details: AE name, occurrence time, end time, severity, whether it was classified as a SAE, severity criteria (if applicable), treatment measures and outcomes, actions taken on investigational drug due to the AE, and the causal relationship between the AE and administrated drug, etc. Each AE was recorded separately.
The subjects were under close monitoring at the clinical research center until the sample retention and safety evaluation were completed. During the safety trial, drug intolerance of a given dose was defined as follows: grade 2 or higher drug-related AEs occurred in more than half of the subjects, or grade 3 or higher drug-related AEs occurred in more than one quarter of the subjects. The dose escalation was halted after drug intolerance occurred.

[2] = tested on: other subtypes of 5-HT receptors, histamine receptors, and acetylcholine receptors; experiment: In vitro affinities or activities to other receptors; assay type: binding

With `Cc1nc(-c2cnc(N3CCN(CCCc4c[nH]c5ccc(C#N)cc45)CC3)nc2)sc1C(N)=O` [HEC113995PA·H2O] as the compound, how does the “incidence of subjects experiencing TEAEs” value ([1]; SAD 2.5 mg group, 1 case) read?
The value was 16.7%.

What about the “incidence of subjects experiencing TEAEs” value ([1]; SAD 5 mg group, 3 cases) of the same compound?
The value was 37.5%.

And the “number of subjects experiencing TEAEs” value ([1]; SAD 10 mg group)?
The value was 0 case.

And the “incidence of subjects experiencing TEAEs” value ([1]; SAD 20 mg group, 5 cases)?
The value was 62.5%.

And the “incidence of subjects experiencing TEAEs” value ([1]; SAD 40 mg group, 6 cases)?
Its value is 75%.

And the “incidence of subjects experiencing TEAEs” value ([1]; SAD 60 mg group, 7 cases)?
The value was 87.5%.

What about the “incidence of subjects experiencing TEAEs” value ([1]; SAD 80 mg group, 7 cases) of the same compound?
The value was 87.5%.

What about the “incidence of subjects experiencing TEAEs” value ([1]; SAD overall safety analysis set incl. placebo, 36 subjects) of the same compound?
Its value is 52.9%.

What about the “incidence of subjects experiencing TRAE” value ([1]; SAD overall safety analysis set, 33 cases) of the same compound?
Its value is 48.5%.

And the “TRAE incidence: abdominal distension” value ([1]; SAD overall, 1 case)?
Its value is 1.9%.

What about the “TRAE incidence: elevated conjugated bilirubin” value ([1]; SAD overall, 1 case) of the same compound?
The value was 1.9%.

And the “TRAE incidence: elevated serum bilirubin” value ([1]; SAD overall, 1 case)?
Its value is 1.9%.

And the “TRAE incidence: elevated serum creatine phosphokinase” value ([1]; SAD overall, 1 case)?
The value was 1.9%.

And the “TRAE incidence: hyperuricemia” value ([1]; SAD overall, 5 cases)?
Its value is 7.4%.

What about the “TRAE incidence: nausea” value ([1]; SAD overall, 5 cases) of the same compound?
The value was 7.4%.

What about the “TRAE incidence: dizziness” value ([1]; SAD overall, 8 cases) of the same compound?
Its value is 11.8%.

What about the “TRAE incidence: elevated triglycerides” value ([1]; SAD overall, 8 cases) of the same compound?
Its value is 11.8%.

And the “TRAE incidence: diarrhea” value ([1]; SAD overall, 13 cases)?
The value was 19.1%.

What about the “severity of elevated conjugated bilirubin” value ([1]; SAD, CTCAE 5.0) of the same compound?
The value was “grade 2”.

And the “severity of other TRAEs” value ([1]; SAD, CTCAE 5.0, spontaneously relieved without treatment)?
Its value is “grade 1”.

And the tolerability ([1]; healthy Chinese subjects, single dose range 2.5–80 mg)?
Its tolerability is “well tolerated”.

And the “higher affinities towards SERT and the 5-HT1A receptor than other receptors” value ([2]; in vitro selectivity)?
Its value is “over 100 fold”.

And the “in vitro affinities or activities to other receptors” value ([2]; other 5-HT receptor subtypes, histamine and acetylcholine receptors, unpublished data)?
Its value is “at the micromolar level”.
